Experimental data: PubChem BioAssay (NCI)
Several values for one entry are separate records, joined by “and”; a condition that tells them apart may be missing. Identical values can stand only once.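 Compound exposure: 48 hours, 5 concentrations, 96-well plates. Here, GI50 denotes the concentration required for 50% inhibition of growth. The concentration for full growth arrest is given as TGI.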

How the values were obtained:
Assay in all cases: NCI-60 cell line screen, 48 h
DU-145 prostate = system: DU-145 prostate
HCT-15 colon = system: HCT-15 colon
HOP-62 NSCLC = system: HOP-62 NSCLC
NCI-H226 lung = system: NCI-H226 lung
RPMI-8226 leukemia = system: RPMI-8226 leukemia
RXF 393 renal = system: RXF 393 renal
SF-268 CNS = system: SF-268 CNS
SF-295 CNS = system: SF-295 CNS
SN12C renal = system: SN12C renal
CCRF-CEM leukemia = system: CCRF-CEM leukemia

Compound | GI50 (DU-145 prostate) [µM] | TGI (DU-145 prostate) [µM] | GI50 (HCT-15 colon) [µM] | TGI (HCT-15 colon) [µM] | GI50 (HOP-62 NSCLC) [µM] | TGI (HOP-62 NSCLC) [µM] | GI50 (NCI-H226 lung) [µM] | TGI (NCI-H226 lung) [µM] | GI50 (RPMI-8226 leukemia) [µM] | TGI (RPMI-8226 leukemia) | GI50 (RXF 393 renal) [µM] | TGI (RXF 393 renal) | GI50 (SF-268 CNS) [µM] | TGI (SF-268 CNS) [µM] | GI50 (SF-295 CNS) [µM] | TGI (SF-295 CNS) [µM] | GI50 (SN12C renal) [µM] | TGI (SN12C renal) [µM] | TGI (CCRF-CEM leukemia) | GI50 (CCRF-CEM leukemia) [µM]
N#CC(C#N)=C1CCOc2ccc(F)cc21 | 14 | 34.6 | 15.5 | 30.3 | 13.2 | 25.9 | 18 | 53.7 | 17.4 | 38.4 µM | 17.4 | 33.5 µM | 14.6 | 48.4 | 16.9 | 41 | 19.8 | 40.1 |  | 
CN(C)CCC(CCN(C)C)=NO |  |  |  | > 100 |  | > 100 |  |  |  | > 100 µM |  | > 100 µM |  | > 100 |  | > 100 |  | > 100 | > 100 µM | 
CCOC(=O)C1=C(C)NC2=C(C(=O)N(c3ccccc3)C2c2ccccc2)C1c1ccccc1 (stereo unspecified) |  |  |  | 32.2 |  | 33.4 |  | 37.1 |  | 53.4 µM |  |  |  | 33.7 |  |  |  | 35.8 | 58 µM | 
COc1cc(CC2c3cc(OC)c(OC)cc3CCN2C)ccc1O (stereo unspecified) |  |  |  | > 100 |  | > 100 |  |  |  | > 100 µM |  |  |  | > 100 |  | > 100 |  | > 100 | > 100 µM | 
O=C(Cc1nc2ccccc2o1)C(=O)Nc1cccc(Cl)c1 |  |  |  | > 100 |  | > 100 |  | > 100 |  |  |  | > 100 µM |  | > 100 |  | > 100 |  | > 100 | > 100 µM | 
O=C(/C=C/c1ccccc1O)c1ccc([N+](=O)[O-])cc1 |  |  |  | 46.8 |  | 32.4 |  | 46.1 |  |  |  | 24.3 µM |  | 66.9 |  | 56.5 |  | 30.8 | 66.1 µM | 
CCOC(=O)C1=C(C)NC(=O)NC1CN1C(=O)c2ccccc2C1=O (stereo unspecified) | > 100 | > 100 | > 100 | > 100 | > 100 | > 100 |  |  | > 100 | > 100 µM | > 100 | > 100 µM | > 100 | > 100 | > 100 | > 100 | > 100 | > 100 | > 100 µM | > 100
CSc1nc2nn(Cc3ccccc3)cc2c(=O)[nH]1 |  |  |  | > 100 |  | > 100 |  | > 100 |  | > 100 µM |  | > 100 µM |  | > 100 |  | > 100 |  | > 100 | > 100 µM | 
O=C(CCc1ccccc1)NS(=O)(=O)c1ccccc1 |  |  |  |  |  | > 100 |  | > 100 |  | > 100 µM |  | > 100 µM |  | > 100 |  | > 100 |  | > 100 | > 100 µM | 
CCOc1ccc(/C=C/c2cc(OC)c(OC)c(OC)c2)cc1 |  |  |  | > 22.1 |  | 35.9 |  | > 26.1 |  | > 100 µM | 0.448 | 5 µM |  | > 25.8 |  | 16.9 |  | > 28 | > 66.8 µM | 
CC(C)(C)c1cc(CCCCCCCC2(CCCCCCCc3cc(C(C)(C)C)cc(C(C)(C)C)c3)OC(COCCOCCCCCC#N)C(COCCOCCCCCC#N)O2)cc(C(C)(C)C)c1 (stereo unspecified) |  |  |  | > 100 |  | > 100 |  | > 100 |  |  |  | > 100 µM |  | > 100 |  | > 100 |  | > 100 | > 100 µM | 
COC(=O)c1ccc(/C=C(\c2ccc([N+](=O)[O-])o2)S(=O)(=O)c2ccc(NC(C)=O)cc2)o1 |  | 21.9 |  | 6.83 |  | 33.4 |  | 7.98 |  | 3.03 µM |  | 25.7 µM |  | 30.9 |  | 32.7 |  | 1.36 |  | 
CCN(CC)CC(C)C(=O)/C=C/c1ccc(C)cc1 (stereo unspecified) |  |  |  | 5.71 |  | 33.5 |  | 31.3 |  | > 100 µM |  | 4.31 µM |  | 4.51 |  | 28.6 |  | 3.02 | 16.1 µM | 
COc1ccc(C(=O)c2c3cc(OC)c(OC)c(OC)c3cc[n+]2C)cc1 |  |  |  |  |  | > 100 |  | 65.2 |  | 49 µM |  | > 100 µM |  | > 100 |  |  |  | > 100 | 71.2 µM | 
c1ccncc1 |  |  |  | > 100 |  | > 100 |  | > 100 |  | > 100 µM |  | > 100 µM |  | > 100 |  | > 100 |  | > 100 | > 100 µM | 
NS(=O)(=O)c1ccc(NC(=O)Cc2nc3ccccc3s2)cc1 |  |  |  | 32.3 |  | 50.9 |  | 33 |  | 74.1 µM |  | 32.6 µM |  | 30.7 |  | 33.2 |  | 30.9 | 47.3 µM | 
O=c1[nH]c(=O)n(C2CC(O)C(CO)O2)cc1C(F)(C(F)(F)F)C(F)(F)F (stereo unspecified) |  |  |  | > 100 |  | > 100 |  | > 100 |  | > 100 µM |  | > 100 µM |  | > 100 |  | > 100 |  | > 100 | > 100 µM | 
CCOc1cn(C2OC(CO)C(O)C2O)c(=O)[nH]c1=O (stereo unspecified) |  |  |  | > 100 |  | > 100 |  | > 100 |  | > 100 µM |  | > 100 µM |  | > 100 |  | > 100 |  | > 100 | > 100 µM | 
O=C1C(=C([O-])c2ccccc2)C(=O)c2ccccc21.O=C1C(=C([O-])c2ccccc2)C(=O)c2ccccc21.[Mn+2] |  |  | 55.4 | > 100 |  |  | 32 | > 100 | > 100 | > 100 µM | 89.6 | > 100 µM |  |  | 74.6 | > 100 | 91.6 | > 100 |  | 
N#CCC(=O)N/N=C1/C(=O)N(c2cc(Cl)ccc2Cl)C(=O)C(=O)C1c1nc2ccccc2s1 (stereo unspecified) |  |  |  | > 100 |  | > 100 |  | > 100 |  | > 100 µM |  | 28.5 µM |  | > 100 |  | > 100 |  | > 100 | > 100 µM | 
C=CC(=O)NC(N)=NC#N |  |  |  | 258 |  | 423 |  | 353 | 91.6 | > 67.3 µM and 446 µM | 149 | 98.1 µM and 286 µM |  | 260 |  | 843 |  | 293 | > 66.1 µM and 317 µM | 130
COC(=O)[C@@]1(C)C(=O)CC[C@@H]1C=O |  |  |  | > 100 |  | > 100 |  | > 100 |  | > 100 µM |  |  |  | > 100 |  | > 100 |  | > 100 | > 100 µM | 
